Results published in publication PMC8773409, “Tetrapeptides Modelled to the Androgen Binding Site of ZIP9 Stimulate Expression of Tight Junction Proteins and Tight Junction Formation in Sertoli Cells” (Biology, 2021).

Columns and labels:
ZIP9 = ZIP9 protein immunofluorescence after siRNA silencing; assay type: cell-based, rat; conditions: ZIP9-siRNA-treated 93RS2 cells; n = 30, means ± SEM
Experimental: For visualization by immunofluorescence, the medium containing the primary antibody was replaced with PBS containing 1% BSA, 0.3% Triton X-100, and the secondary antibody (goat anti-rabbit IgG diluted at 1:500 in 2% FCS, 0.1 Triton X-100 in PBS) labeled with AlexaFluor 488 (Life Technologies, Darmstadt, Germany). This medium was removed by aspiration after 1 h at room temperature and cells were washed in PBS 3 times. All incubation steps with UV-sensitive reagents were carried out in the dark. An inverse Olympus IX81 microscope equipped with the corresponding fluorescence system (Olympus, Hamburg, Germany) was used to acquire images.
Fluorescence was measured according to the instructions of the ImageJ software program (freely available at http://rsbweb.nih.gov/ij/, accessed on 23 December 2021) according to the protocol provided (http://www.slu.se/PageFiles/388774/Pacho%20ImageJ¬¬%20-measuring-cell-fluo¬rescence.pdf, accessed on 23 December 2021). Only green fluorescence was considered. The fluorescence of 3 × 25 cells closest to the diagonals of photomicrographs from 3 independent experiments was considered for statistical analysis. […]
A total of 6 × 10^4 93RS2 cells were cultured in 2-cm wells of a 6-well plate for 24 h. […] The concentration of the extracted mRNA was quantified by the NanodropTM One spectrophotometer (Thermo Fisher Scientific, Schwerte, Germany). […]

ZIP9 mRNA = assay: RT-PCR of ZIP9 mRNA after siRNA silencing; assay type: cell-based, rat; conditions: ZIP9-siRNA-treated 93RS2 cells
Experimental: A total of 6 × 10^4 93RS2 cells were cultured in 2-cm wells of a 6-well plate for 24 h. Thereafter, cells were treated for 48 h either with ZIP9-specific siRNA (ZIP9-siRNA; 5′GGAUUAAGUAAGAGCAGUAtt3′ and 5′UACUGCUCUUACUUAAUCCta3′) to silence ZIP9 expression or with an appropriate negative control siRNA (nc-siRNA), as described previously. ZIP9-siRNA and nc-siRNA were part of the kit Silencer® Select Pre-designed siRNA, provided by Invitrogen (Thermo Fisher Scientific, Schwerte, Germany). After the siRNA treatment, RNeasy® Mini Kit (Qiagen GmbH, Hilden, Germany) was used to isolate mRNA. The concentration of the extracted mRNA was quantified by the NanodropTM One spectrophotometer (Thermo Fisher Scientific, Schwerte, Germany). Samples were measured in duplicate and the average values were used.
RT-PCR was applied in order to assess the success of silencing ZIP9 expression by siRNA. mRNA that had been isolated from cells treated with either nc-siRNA or ZIP9-specific siRNA was processed to cDNA using the Reverse Transcription System (Promega GmbH, Mannheim, Germany) according to the protocol of the provider. A total of 1 µg cDNA, quantified by the NanodropTM One spectrophotometer, was used in the PCR-Master-Mix ready-to-load (Bio&SELL GmbH, Feucht, Germany) to detect ZIP9-specific cDNA. […]

[1] = tested on: Erk1/2 phosphorylation (via ZIP9) in 93RS2 cells; assay: Western blot of phospho-Erk1/2 in 93RS2 Sertoli cells; assay type: cell-based, rat
Experimental: (§1) The medium was replaced every two days.
(§2) A total of 1 × 10^5 93RS2 cells were grown in 10-cm culture dishes as described above. Cells were then incubated for 24 h with 1% FBS before treatment with various concentrations of the peptides dissolved in medium or testosterone dissolved in ethanol; equal amounts of ethanol were also added to the peptide-treated cells and to control incubations. […] After centrifugation of the lysates at 4 °C for 10 min at 13,000× g, the protein concentration in the supernatants was determined using a bicinchoninic acid (BCA) protein assay reagent kit (Pierce, Rockford, IL, USA) with inclusion of the lysis buffer in the standard curve.
(§3) For Western blotting, 10 µg of protein from cell lysates was separated by SDS-PAGE on slab gels containing 10% acrylamide and 0.3% N,N′-methylene-bis-acrylamide. […] The resulting chemiluminescence was recorded by exposure to film, which was analyzed with the software program ImageJ (freely available at http://rsbweb.nih.gov/ij/ (accessed on 31 December 2021)). Loading differences in the various Western blots were corrected by taking into consideration the optical density of bands corresponding to unphosphorylated Erk1/2 bands or total actin detected in Western blots that were run in parallel. […]

[2] = tested on: CREB/ATF-1 phosphorylation (via ZIP9) in 93RS2 cells; assay: Western blot of phospho-CREB/phospho-ATF-1 in 93RS2 Sertoli cells; assay type: cell-based, rat
Experimental: as §1
as §2, with “incubations. After 30 min of incubation the medium was removed by aspiration, and cells were washed twice with ice-cold PBS (without Ca^2+ or Mg^2+; Thermo Fisher Scientific, Darmstadt, Germany) and then lysed in 400 µL of a commercially available cell lysis buffer (Cell Signaling Technology, Frankfurt, Germany) according to the protocol of the provider. Immediately before use, […], 1× protease inhibitor cocktail (Roche, Mannheim, Germany), and 2 µg/mL pepstatin were added to the lysis buffer. All lysis steps were carried out on ice.” for “incubations.”
as §3
Data were analyzed by GraphPad Prism4 software and by applying either the unpaired t-test with Welch’s corrections or one-way ANOVA with repeated measures and Dunnett´s comparison of all data to the control. […]

[3] = tested on: Erk1/2 phosphorylation in 93RS2 cells; assay: Immunofluorescence of phospho-Erk1/2 in 93RS2 cells; assay type: cell-based, rat; conditions: 10 nM testosterone or 10 µM peptide, 30 min, n = 3 × 25
Experimental: as §1
(§4) Each chamber of 4-chamber slides was plated with 1 × 10^4 93RS2 cells and cultured as described above to approximately 80% confluence. Incubation was then carried out with either 10 nM testosterone or 10 µM of each of the peptides or with vehicle only (control). The medium was removed by aspiration after 30 min, and cells were fixed for 15 min in absolute methanol containing DAPI (4′,6-diamidino-2-phenylindole). After aspirating the fixative, cells were treated with blocking solution (3% BSA and 0.3% Triton X-100 in PBS) for 1 h. […]
(§5) For visualization by immunofluorescence, the medium containing the primary antibody was replaced with PBS containing 1% BSA, 0.3% Triton X-100, and the secondary antibody (goat anti-rabbit IgG diluted at 1:500 in 2% FCS, 0.1 Triton X-100 in PBS) labeled with AlexaFluor 488 (Life Technologies, Darmstadt, Germany). […] An inverse Olympus IX81 microscope equipped with the corresponding fluorescence system (Olympus, Hamburg, Germany) was used to acquire images.
(§6) Fluorescence was measured according to the instructions of the ImageJ software program (freely available at http://rsbweb.nih.gov/ij/, accessed on 23 December 2021) according to the protocol provided (http://www.slu.se/PageFiles/388774/Pacho%20ImageJ¬¬%20-measuring-cell-fluo¬rescence.pdf, accessed on 23 December 2021). Only green fluorescence was considered. […]

[4] = tested on: CREB/ATF-1 phosphorylation in 93RS2 cells; assay: Immunofluorescence of phospho-CREB/phospho-ATF-1 in 93RS2 cells; assay type: cell-based, rat; conditions: 10 nM testosterone or 10 µM peptide, 30 min
Experimental: as §1, §4, §5, §6

[5] = tested on: ZO-1 expression in 93RS2 cells; assay: Immunofluorescence of ZO-1 in 93RS2 cells; assay type: cell-based, rat; conditions: 10 nM testosterone or 10 µM peptide, 24 h
claudin-1 in 93RS2 cells = assay: Immunofluorescence of claudin-1 in 93RS2 cells; assay type: cell-based, rat; conditions: 10 nM testosterone or 10 µM peptide, 24 h
claudin-5 in 93RS2 cells = assay: Immunofluorescence of claudin-5 in 93RS2 cells; assay type: cell-based, rat; conditions: 10 nM testosterone or 10 µM peptide, 24 h
[6] = tested on: 93RS2 Sertoli cells (tight junction formation); assay: Transepithelial electrical resistance (TER) across 93RS2 monolayers; assay type: cell-based, rat; conditions: ZIP9-siRNA; 10 nM testosterone or 10 µM peptides; up to 72 h
Experimental: as §1
A total of 3 × 10^4 cells were added to 0.4-µm pore ThinCertsTM (Greiner Bio-one GmbH, Frickenhausen, Germany) arranged within 1-cm wells of a 24-well plate. Cells were cultured for 24 h. Stimulation was then carried out with either testosterone or peptides at concentrations of 0.1, 1, 10, or 100 nM (testosterone) or 0.1, 1, 10, or 100 µM (peptides). Control incubations received ethanol vehicle only. TER was determined after 0, 24, 48, and 72 h, with the first measurement being made immediately after addition of testosterone or peptides. Stimulants remained in the cell medium for the entire duration of the experiment, and during this time the medium was not renewed. A Millicell ERS-2 epithelial Volt-Ohm Meter (Merck Millipore, Darmstadt, Germany) was used to measure TER. Each experiment was repeated three times. Similar experiments were carried out after silencing expression of ZIP9 by siRNA.
Data were analyzed by GraphPad Prism4 software and by applying either the unpaired t-test with Welch’s corrections or one-way ANOVA with repeated measures and Dunnett´s comparison of all data to the control. Significance was accepted at p ≤ 0.05.

[7] = tested on: total Erk1/2 in 93RS2 cells; assay: Expression of total Erk1/2 in 93RS2 lysates; assay type: cell-based, rat; conditions: lysates of treated 93RS2 cells; data not shown
Experimental: as §2, with “incubations. After 30 min of incubation the medium was removed by aspiration, and cells were washed twice with ice-cold PBS (without Ca^2+ or Mg^2+; Thermo Fisher Scientific, Darmstadt, Germany) and then lysed in 400 µL of a commercially available cell lysis buffer (Cell Signaling Technology, Frankfurt, Germany) according to the protocol of the provider.” for “incubations.”
For Western blotting, 10 µg of protein from cell lysates was separated by SDS-PAGE on slab gels containing 10% acrylamide and 0.3% N,N′-methylene-bis-acrylamide. […] The resulting chemiluminescence was recorded by exposure to film, which was analyzed with the software program ImageJ (freely available at http://rsbweb.nih.gov/ij/ (accessed on 31 December 2021)). […]

[8] = tested on: claudin-1 and claudin-5 expression in rodent Sertoli cells; set-up: method as in PMID 27164415, PMID 12851029, PMID 20403878, doi:10.1093/biolreprod/83.s1.109; conditions: ref [6],[29],[34],[35]; cited from earlier work
[9] = tested on: androgen binding site of ZIP9 on 93RS2 cells; assay: Cell-surface labeling with testosterone-BSA-FITC (displacement); conditions: 20 min; for labeling of 93RS2 cells by fluorescent conjugate: 5 µM, room temperature, no competitor, ZIP9 expressed
Experimental: Cells were cultured in a humidified incubator (37 °C, 5% CO2) in 1:1 DMEM:Ham’s F-12 medium with L-glutamine supplemented with 10% (v/v) fetal bovine serum (FBS) and 1% (v/v) penicillin/streptomycin. The medium was replaced every two days.
A total of 93 RS2 cells were cultured at a density of 5 × 10^3 cells per well in 24-well plates as described above. After reaching about 80% confluence, the cells were treated with either 10 nM testosterone or 1 µM of each of the peptides for 1 h. Both peptide-treated cells and controls were also treated with ethanol vehicle at the same concentration as other plates of cells treated with testosterone dissolved in ethanol. […] After incubation for an additional 20 min at room temperature, the medium was aspirated and cells were fixed in 400 µL ice-cold methanol containing 20 ng of 4,6-diamino-2-phenylindole (DAPI) at room temperature. This solution was aspirated after 15 min and cells were washed with 700 μL PBS. Cell imaging was carried out in 400 µL PBS using an inverse Olympus IX81 microscope (Olympus, Hamburg, Germany).
In order to account for non-specific binding, cells were incubated for 20 min with 5 µM BSA-FITC (lacking the testosterone moiety) diluted in Tris-Buffer (pH 7.2) at room temperature. After washing twice with PBS and fixing in absolute methanol containing DAPI for 15 min, images were obtained as described above.

[10] = 30 min, T 0.1-100 nM, peptides 0.1-100 µM, Western blot

5′GGAUUAAGUAAGAGCAGUAtt3′ and 5′UACUGCUCUUACUUAAUCCta3′ (chain 1 GGAUUAAGUAAGAGCAGUATT; chain 2 UACUGCUCUUACUUAAUCCTA; siRNA; chemistry not fully specified) [ZIP9-siRNA, ZIP9-specific siRNA to silence ZIP9 expression]
ZIP9-specific immunofluorescence remaining vs control conditions (ZIP9): 7.93 ± 1.1%
presence of ZIP9-specific mRNA/cDNA vs nc-siRNA (ZIP9 mRNA): greatly reduced

C[C@]12CC[C@H]3[C@@H](CCC4=CC(=O)CC[C@@]43C)[C@@H]1CC[C@@H]2O [testosterone]
stimulation of Erk1/2 phosphorylation, in words [1, 10]: stimulated in a concentration-dependent manner the phosphorylation of Erk1/2
EC50 ([1]; Rattus norvegicus, 0.5 h, read-out: EC50 for stimulation of Erk1/2 phosphorylation (approximate, Discussion)): ~0.5 nM
stimulation of CREB/ATF-1 phosphorylation, in words [2, 10]: stimulate the phosphorylation of the transcription factors CREB and ATF-1
EC50 ([2]; Rattus norvegicus, 0.5 h, read-out: EC50 for CREB and ATF-1 phosphorylation (approximate, Discussion)): ~0.5 nM
concentration of maximum effect on CREB/ATF-1 phosphorylation ([2]; testosterone (Discussion)): 10 nM
phosphorylation of Erk1/2 by immunofluorescence, ZIP9 silenced ([3]; ZIP9-siRNA-treated cells): abolished the stimulation of Erk1/2 phosphorylation
phosphorylation of Erk1/2 by immunofluorescence, ZIP9 expressed ([3]; nc-siRNA-treated cells): triggered the phosphorylation of Erk1/2
phosphorylation of CREB/ATF-1 by immunofluorescence, ZIP9 silenced ([4]; ZIP9-siRNA-treated cells): complete loss of the stimulatory effect
phosphorylation of CREB/ATF-1 within nuclei by immunofluorescence, ZIP9 expressed ([4]; nc-siRNA-treated cells): stimulated phosphorylation of the transcription factors within the nuclei
ZO-1 expression, ZIP9 silenced ([5]; ZIP9-siRNA): did not respond
ZO-1 expression, ZIP9 expressed ([5]; nc-siRNA): stimulated the expression of zona occludens (ZO-1)
claudin-1 distribution, ZIP9 silenced (claudin-1 in 93RS2 cells; ZIP9-siRNA): This re-distribution was not observed
claudin-1 distribution, ZIP9 expressed (claudin-1 in 93RS2 cells; nc-siRNA): triggered re-distribution of claudin-1 from the cytosol to the membranes or to the nuclei
claudin-1 expression level (claudin-1 in 93RS2 cells; nc-siRNA): do not seem to influence the expression level of claudin-1
claudin-5 expression and localization, ZIP9 silenced (claudin-5 in 93RS2 cells; ZIP9-siRNA): Only basal levels of Claudin-5 are detected
claudin-5 expression, ZIP9 expressed (claudin-5 in 93RS2 cells; nc-siRNA): stimulated the expression of claudin-5
TER increase, ZIP9 silenced [6]: failed to stimulate TER increase
effect on expression of total Erk1/2 [7]: without affecting the expression of the enzyme protein
claudin-1 and claudin-5 expression [8]: stimulate claudin-1 and claudin-5 expression

BSA-FITC: BSA-FITC (lacking the testosterone moiety)
labeling of 93RS2 cells by fluorescent conjugate [9]: Relatively low signals of green fluorescence

Testosterone 3-(O-carboxymethyl)oxime:BSA-fluorescein isothiocyanate [T-BSA-FITC]
labeling of 93RS2 cells by fluorescent conjugate [9]: uniform green labeling of the extracellular surface of the cells
labeling of cell membranes by testosterone-BSA-FITC, ZIP9 silenced ([9]; ZIP9-siRNA-treated cells, 5 µM T-BSA-FITC): completely prevented
